Target: T1, Recombinant human renin (Homo sapiens, UniProt P00797)
T1 construct: isolate the active form (residues 67-406); made in house; host or cells: FreeStyle 293-F cells (transient expression of pcDNA3.1(+)/hREN)
T1 sequence (P00797 67-406): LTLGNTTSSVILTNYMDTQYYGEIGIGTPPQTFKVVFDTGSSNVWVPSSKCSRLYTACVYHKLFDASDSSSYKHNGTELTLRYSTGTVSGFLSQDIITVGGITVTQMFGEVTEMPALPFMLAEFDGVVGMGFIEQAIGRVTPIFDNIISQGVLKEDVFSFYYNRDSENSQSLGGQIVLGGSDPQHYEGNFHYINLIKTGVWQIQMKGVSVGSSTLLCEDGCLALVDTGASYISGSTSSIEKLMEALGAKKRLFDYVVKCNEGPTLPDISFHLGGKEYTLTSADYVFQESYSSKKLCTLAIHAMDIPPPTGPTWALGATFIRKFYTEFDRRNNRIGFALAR
Experiment: In vitro enzymatic activity assay of renin inhibitors (fluorogenic peptide substrate)
Format: biochemical
Conditions: read-out: IC50 of Exemplified Compounds Against Renin
Outline: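 Enzyme: recombinant human renin, 3 nM final, 10 min compound pre-incubation at 37 °C; buffer 50 mM Hepes pH 7.4 with 0.1 mg/mL BSA or extra 2% BSA; 5% DMSO.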

`COCCCn1c([C@@H]2CCCN(C(=O)C[C@H](N)CNS(=O)(=O)c3cccc(OC)c3)C2)nc2ccccc21` [Compound 315, N-((S)-2-amino-4-((R)-3-(1-(3-methoxypropyl)-1H-benzo[d]imidazol-2-yl)piperidin-1-yl)-4-oxobutyl)-3-methoxybenzenesulfonamide] and `COCCCn1c([C@@H]2CCCN(C(=O)[C@@H]3CN(S(=O)(=O)c4cccc(OC)c4)C[C@H]3N)C2)nc2ccccc21` [Compound 357, ((3R,4S)-4-amino-1-(3-methoxyphenylsulfonyl)pyrrolidin-3-yl)((R)-3-(1-(3-methoxypropyl)-1H-benzo[d]imidazol-2-yl)piperidin-1-yl)methanone] fall in the same range of IC50: 100 to 1000 nM for the first, 100 to 1000 nM for the second.

First: COCCCn1c([C@@H]2CCCN(C(=O)C[C@H](N)Cc3ccc(N4CCC(O)CC4)cc3)C2)nc2ccccc21 [Compound 234, (R)-3-amino-4-(4-(4-hydroxypiperidin-1-yl)phenyl)-1-((R)-3-(1-(3-methoxypropyl)-1H-benzo[d]imidazol-2-yl)piperidin-1-yl)butan-1-one]
Second: COCCCn1c([C@@H]2CCCN(C(=O)C[C@H](N)Cc3ccc(Cl)cc3)C2)nc2ccccc21 [Compound 75, (R)-3-amino-4-(4-chlorophenyl)-1((R)-3-(1-(3-methoxypropyl)-1H-benzo[d]imidazol-2-yl)piperidin-1-yl)butan-1-one]
The IC50 of the first is higher: > 1000 nM for the first, 100 to 1000 nM for the second. The second is the more potent here.

`COCCCn1c([C@@H]2CCCN(C(=O)C[C@H](N)Cc3ccc(-c4cnc(N)nc4)cc3)C2)nc2c(F)cccc21` [Compound 456, (R)-3-amino-4-(4-(2-aminopyrimidin-5-yl)phenyl)-1-((R)-3-(4-fluoro-1-(3-methoxypropyl)-1H-benzo[d]imidazol-2-yl)piperidin-1-yl)butan-1-one] and `COCCCn1c([C@@H]2CCCN(C(=O)C[C@H](N)Cc3ccc(-c4ccc5c(c4)CCO5)cc3)C2)nc2c(F)cccc21` [Compound 490, (R)-3-amino-4-(4-(2,3-dihydrobenzofuran-5-yl)phenyl)-1-((R)-3-(4-fluoro-1-(3-methoxypropyl)-1H-benzo[d]imidazol-2-yl)piperidin-1-yl)butan-1-one] cannot be ordered by IC50: < 100 nM for the first, < 100 nM for the second.

`COCCCn1c([C@@H]2CCCN(C(=O)C[C@H](N)Cc3ccc(-c4ccc(C(=O)NC(C)(C)CO)cc4)cc3)C2)nc2ccccc21` [Compound 183, 4′-((R)-2-amino-4-((R)-3-(1-(3-methoxypropyl)-1H-benzo[d]imidazol-2-yl)piperidin-1-yl)-4-oxobutyl)-N-(1-hydroxy-2-methylpropan-2-yl)biphenyl-4-carboxamide] and `COCCCn1c([C@@H]2CCCN(C(=O)C[C@H](N)Cc3ccc(-c4ccc(C(N)=O)cc4)cc3)C2)nc2ccccc21` [Compound 168, 4′-((R)-2-Amino-4-((R)-3-(1-(3-methoxypropyl)-1H-benzo[d]imidazol-2-yl)piperidin-1-yl)-4-oxobutyl)biphenyl-4-carboxamide] cannot be ordered by IC50: < 100 nM for the first, < 100 nM for the second.

First: COCCCn1c([C@@H]2CCCN(C(=O)[C@@H]3CN(C(=O)Nc4ccc(OC)cc4)C[C@H]3N)C2)nc2ccccc21 [Compound 415, (3S,4R)-3-amino-N-(4-methoxyphenyl)-4-((R)-3-(1-(3-methoxypropyl)-1H-benzo[d]imidazol-2-yl)piperidine-1-carbonyl)pyrrolidine-1-carboxamide]
Second: COCCCn1c([C@@H]2CCCN(C(=O)[C@@H]3CN(S(=O)(=O)c4cccc(NC(C)=O)c4)C[C@H]3N)C2)nc2ccccc21 [Compound 429, N-(3-((3S,4R)-3-amino-4-((R)-3-(1-(3-methoxypropyl)-1H-benzo[d]imidazol-2-yl)piperidine-1-carbonyl)pyrrolidin-1-ylsulfonyl)phenyl)acetamide]
The IC50 of the first is higher: > 1000 nM for the first, < 100 nM for the second. The second is the more potent here.

First: COCCCn1c([C@@H]2CCCN(C(=O)[C@@H]3CN(S(=O)(=O)c4ccc5c(c4)OCCO5)C[C@H]3N)C2)nc2ccccc21 [Compound 337, ((3R,4S)-4-amino-1-(2,3-dihydrobenzo[b][1,4]dioxin-6-ylsulfony)pyrrolidin-3-yl)((R)-3-(1-(3-methoxypropyl)-1H-benzo[d]imidazol-2-yl)piperidin-1-yl)methanone]
Second: COCCCn1c([C@@H]2CCCN(C(=O)[C@@H]3CN(S(=O)(=O)c4ccc5ccccc5c4)C[C@H]3N)C2)nc2ccccc21 [Compound 341, ((3R,4S)-4-amino-1-(naphthalen-2-ylsulfonyl)pyrrolidin-3-yl)((R)-3-(1-(3-methoxypropyl)-1H-benzo[d]imidazol-2-yl)piperidin-1-yl)methanone]
The IC50 of the first is higher: > 1000 nM for the first, 100 to 1000 nM for the second. The second is the more potent here.

First: COCCCn1c([C@@H]2CCCN(C(=O)C[C@H](N)c3ccccc3)C2)nc2ccccc21 [Compound 89, (S)-3-amino-1((R)-3-(1-(3-methoxypropyl)-1H-benzo[d]imidazol-2-yl)piperidin-1-yl)-3-phenylpropan-1-one]
Second: COCCCn1c([C@@H]2CCCN(C(=O)C[C@H](N)CNC(=O)c3ccccc3Cl)C2)nc2ccccc21 [Compound 320, N-((S)-2-amino-4-((R)-3-(1-(3-methoxypropyl)-1H-benzo[d]imidazol-2-yl)piperidin-1-yl)-4-oxobutyl)-2-chlorobenzamide]
The IC50 of the first is higher: > 1000 nM for the first, 100 to 1000 nM for the second.

`COCCCn1c([C@@H]2CCCN(C(=O)C[C@H](N)Cc3ccc(-c4ccc5c(c4)CC(=O)N5)cc3)C2)nc2c(C)cccc21` [Compound 495, 5-(4-((R)-2-amino-4-((R)-3-(1-(3-methoxypropyl)-4-methyl-1H-benzo[d]imidazol-2-yl)piperidin-l-yl)-4-oxobutyl)phenyl)indolin-2-one] and `COCCCn1c([C@@H]2CCCN(C(=O)C[C@H](N)Cc3ccc(-c4ccc5[nH]nc(N)c5c4)cc3)C2)nc2c(C)cccc21` [Compound 500, (R)-3-amino-4-(4-(3-amino-1H-indazol-5-yl)phenyl)-1-((R)-3-(1-(3-methoxypropyl)-4-methyl-1H-benzo[d]imidazol-2-yl)piperidin-1-yl)butan-1-one] cannot be ordered by IC50: < 100 nM for the first, < 100 nM for the second.

`COCCCn1c([C@@H]2CCCN(C(=O)C[C@H](N)Cc3ccc(-c4ccc(C(=O)N5CCOCC5)cc4)cc3)C2)nc2ccccc21` [Compound 127, (R)-3-amino-1-((R)-3-(1-(3-methoxypropyl)-1H-benzo[d]imidazol-2-yl)piperidin-1-yl)-4-(4′-(morpholine-4-carbonyl)biphenyl-4-yl)butan-1-one] and `COCCCn1c([C@@H]2CCCN(C(=O)C[C@H](N)Cc3ccc(-c4ccc(C(=O)NC(CO)CO)cc4)cc3)C2)nc2ccccc21` [Compound 184, 4′-((R)-2-amino-4-((R)-3-(1-(3-methoxypropyl)-1H-benzo[d]imidazol-2-yl)piperidin-1-yl)-4-oxobutyl)-N-(1,3-dihydroxypropan-2-yl)biphenyl-4-carboxamide] cannot be ordered by IC50: < 100 nM for the first, < 100 nM for the second.

`CC(=O)NCCn1c([C@@H]2CCCN(C(=O)C[C@H](N)Cc3ccc(-c4ccc5c(c4)SCC(=O)O5)cc3)C2)nc2ccccc21` [Compound 464, N-(2-(2-((R)-1-((R)-3-amino-4-(4-(2-oxo-2,3-dihydrobenzo[b][1,4]oxathiin-6-yl)phenyl)butanoyl)piperidin-3-yl)-1H-benzo[d]imidazol-1-yl)ethyl)acetamide] and `COCCCn1c([C@@H]2CCCN(C(=O)C[C@H](N)Cc3ccc(-c4ccc(C(=O)NCCO)cc4Cl)cc3)C2)nc2ccccc21` [Compound 192, 4′-((R)-2-amino-4-((R)-3-(1-(3-methoxypropyl)-1H-benzo[d]imidazol-2-yl)piperidin-1-yl)-4-oxobutyl)-2-chloro-N-(2-hydroxyethyl)biphenyl-4-carboxamide] cannot be ordered by IC50: < 100 nM for the first, < 100 nM for the second.

First: COCCCn1c([C@@H]2CCCN(C(=O)C[C@H](N)Cc3ccc(-c4c(C)n[nH]c4C)cc3)C2)nc2ccccc21 [Compound 137, (R)-3-amino-4-(4-(3,5-dimethyl-1H-pyrazol-4-yl)phenyl)-1-((R)-3-(1-(3-methoxypropyl)-1H-benzo[d]imidazol-2-yl)piperidin-1-yl)butan-1-one]
Second: COCCCn1c(C2CCCN(C(=O)C[C@H](N)Cc3ccc4ccccc4c3)C2)nc2ccc(CO)cc21 (stereo partly drawn) [Compound 113, (3R)-3-amino-1-(3-(6-(hydroxymethyl)-1-(3-methoxypropyl)-1H-benzo[d]imidazol-2-yl)piperidin-1-yl)-4-(naphthalen-2-yl)butan-1-one]
The IC50 of the first is lower: < 100 nM for the first, 100 to 1000 nM for the second. The first is the more potent here.

`CCOc1ccccc1NC(=O)NC[C@@H](N)CC(=O)N1CCC[C@@H](c2nc3ccccc3n2CCCOC)C1` [Compound 285, 1-((S)-2-amino-4-((R)-3-(1-(3-methoxypropyl)-1H-benzo[d]imidazol-2-yl)piperidin-1-yl)-4-oxobutyl)-3-(2-ethoxyphenyl)urea] and `COCCCn1c([C@@H]2CCCN(C(=O)C[C@H](N)CNC(=O)c3ccc(-c4ccccc4[N+](=O)[O-])o3)C2)nc2ccccc21` [Compound 275, N-((S)-2-amino-4-((R)-3-(1-(3-methoxypropyl)-1H-benzo[d]imidazol-2-yl)piperidin-1-yl)-4-oxobutyl)-5-(2-nitrophenyl)furan-2-carboxamide] fall in the same range of IC50: 100 to 1000 nM for the first, 100 to 1000 nM for the second.

Work on `COCCCn1c([C@@H]2CCCN(C(=O)[C@@H]3CN(C(=O)c4cccnc4Oc4ccccc4)C[C@H]3N)C2)nc2ccccc21` [Compound 366, ((3R,4S)-4-amino-1-(2-phenoxynicotinoyl)pyrrolidin-3-yl)((R)-3-(1-(3-methoxypropyl)-1H-benzo[d]imidazol-2-yl)piperidin-1-yl)methanone] yielded an IC50 of 100 to 1000 nM.

— patent US8138168B1 (Takeda Pharmaceutical Company Limited, priority 2007, dated 2012)
